This note sets out measurements from the NIST ThermoML archive (doi:10.1016/j.fluid.2013.05.013).

Structures are written as SMILES. Numbers after ± are expanded uncertainties.

The conditions of this data set: 101.33 kPa, Liquid; for viscosity: Concentric cylinders viscometry; for mass density: Vibrating tube method.

In the case of `CCn1cc[n+](C)c1.O=S(=O)([N-]S(=O)(=O)C(F)(F)F)C(F)(F)F`, the viscosity (in general, the resistance of a fluid to flow) is, setting by setting: (288.15 K) 47.97 ± 0.29 mPa·s; (298.15 K) 32.51 ± 0.2 mPa·s; (308.15 K) 23.34 ± 0.14 mPa·s; (318.15 K) 17.46 ± 0.11 mPa·s. Moreover, the mass density (as a rule, mass per unit of volume) runs as follows: (288.15 K) 1528.51 ± 0.7 kg/m3; (298.15 K) 1518.38 ± 0.69 kg/m3; (308.15 K) 1508.33 ± 0.68 kg/m3; (318.15 K) 1498.36 ± 0.67 kg/m3.
Turning to `CCn1cc[n+](C)c1.O=S(=O)([O-])C(F)(F)F` [1-ethyl-3-methylimidazolium trifluoromethanesulfonate], the viscosity worked out at 67.66 ± 0.45 mPa·s (288.15 K), 45.12 ± 0.28 mPa·s (298.15 K), 31.89 ± 0.2 mPa·s (308.15 K) and 23.4 ± 0.14 mPa·s (318.15 K). The mass density came out at 1392.47 ± 0.57 kg/m3 (288.15 K), 1384.05 ± 0.56 kg/m3 (298.15 K), 1375.68 ± 0.56 kg/m3 (308.15 K) and 1367.37 ± 0.55 kg/m3 (318.15 K).
